“Also recorded” adds a separate entry of the source.

The data set has as its system 6-year children with autistic spectrum disorders and severe cognitive impairments. Briefly: Complex therapy of 6-year children, copolymer tablets added to basic therapy with neuroleptics. It is filed as in vivo. An excerpt:
The method can be used for the treatment of autistic disorders and cognitive impairments in 6-year children. A treatment regimen is selected by a specialist depending on the severity of a disease, condition and age of a patient. In particular, the treatment can be performed according to the following regimen: administration of a medicament 3 times per day for 5 days followed by the 5-day break. This ten-day cycle is repeated […]. The total duration of the treatment is 30 days. A dose of the active agent is 36 mg/day. Then, the course should be repeated.
The efficacy and safety of the use of sodium carboxymethyl cellulose polymer with a degree of substitution of 0.35 to 0.80 and gossypol, of formula (I) in a complex therapy of 6-year children with autistic spectrum disorders and severe cognitive impairments were studied. The children were administered with a medicament comprising a copolymer of sodium carboxymethyl cellulose with a degree of substitution of 0.35 to 0.80 and gossypol, of formula (I) (tablets containing 12 mg of the active agent, which composition is shown in Table 2) on the background of basic therapy with neuroleptics such as neuleptil, haloperidol, aminazine, teraligen, triphtazine, eglonil, azaleptin chlorprothixene. Antidepressants (e.g., anafranil) and anticonvulsants (finlepsin, trileptal, or topamax) were used in some cases. Neuroleptics, antidepressants and anticonvulsants were used in optimal therapeutic doses. […] When the therapy was supplemented with a medicament comprising a copolymer of sodium carboxymethyl cellulose with a degree of substitution of 0.35 to 0.80 and gossypol, of formula (I), the manifestations of encopresis and enuresis ceased, catatonic disorders decreased, cognitive functions improved, and speech appeared. In patients with mild to moderate autism, restricted repetitive behavior disappeared.

Where [1] appears, read: patients with very severe autism, therapy supplemented with the medicament.

“sodium salt of copolymer of carboxymethyl cellulose with a degree of substitution of 0.35 to 0.80 and gossypol”: the “resistance to therapy with neuroleptics / psychotropic drugs” value (added to basic therapy, especially patients with very severe autism, 12 mg tablets) was “decreased; also recorded: elimination”. In addition, under “in vivo”, the “negative side effects on a patient” value is “does not have negative side effects”; the tolerability result is “well tolerable”; the “toxic and allergic reactions” value is reported as “not reported”. In addition, the restricted repetitive behavior entry (patients with mild to moderate autism) is reported as “disappeared”. For the same substance, under setting [1], the catatonic disorders result is reported as “decreased”; the “manifestations of encopresis and enuresis” value was “ceased”; the speech result is listed as “appeared”. Also, the cognitive functions result (therapy supplemented with the medicament) is listed as “improved; also recorded: significant improvement”. Moreover, where the note is “when administering the medicament”, the “mental condition of the patients” value is “improved”.

These data come from US9078916B2, “Method for producing and using a copolymer of sodium carboxymethyl cellulose and gossypol” (Limited Liability Company “Nearmedic Plus”, priority 2010, dated 2015).
